Assay results reported in PubChem BioAssay (NCI).
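Interpolation was linear, between the two tested concentrations surrounding the appropriate level; five concentrations were tested over 48 hours in 96-well plates. Here, GI50 denotes the concentration required for 50% inhibition of growth. At the TGI there is no net growth.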

Key:
Test in all cases: growth of human tumour cells (NCI), 48 h
DLD-1 colon = tested on: DLD-1 colon
LXFL 529 NSCLC = tested on: LXFL 529 NSCLC
MALME-3M melanoma = tested on: MALME-3M melanoma
NCI-H23 lung = tested on: NCI-H23 lung
OVCAR-3 ovarian = tested on: OVCAR-3 ovarian
RPMI-8226 leukemia = tested on: RPMI-8226 leukemia
RXF 393 renal = tested on: RXF 393 renal
SF-295 CNS = tested on: SF-295 CNS
SK-MEL-5 melanoma = tested on: SK-MEL-5 melanoma
TK-10 renal = tested on: TK-10 renal

| SMILES | TGI (DLD-1 colon) [µM] | TGI (LXFL 529 NSCLC) [µM] | TGI (MALME-3M melanoma) [µM] | TGI (NCI-H23 lung) [µM] | TGI (OVCAR-3 ovarian) [µM] | TGI (RPMI-8226 leukemia) [µM] | TGI (RXF 393 renal) [µM] | TGI (SF-295 CNS) [µM] | TGI (SK-MEL-5 melanoma) [µM] | TGI (TK-10 renal) [µM] | GI50 (DLD-1 colon) [µM] | GI50 (LXFL 529 NSCLC) [µM] | GI50 (MALME-3M melanoma) [µM] | GI50 (NCI-H23 lung) [µM] | GI50 (OVCAR-3 ovarian) [µM] | GI50 (RPMI-8226 leukemia) [µM] | GI50 (RXF 393 renal) [µM] | GI50 (SF-295 CNS) [µM] | GI50 (SK-MEL-5 melanoma) [µM] | GI50 (TK-10 renal) [µM] |
| --- | --- | --- | --- | --- | --- | --- | --- | --- | --- | --- | --- | --- | --- | --- | --- | --- | --- | --- | --- | --- |
| O=S1Nc2c(Cl)cc(Cl)c(Cl)c2S1 (stereo unspecified) | > 100 | > 100 | > 100 | > 100 | > 100 | > 100 | > 100 | > 100 | > 100 | > 100 | – | – | – | – | – | – | – | – | – | – |
| Cn1cccc1/C=C/c1cc(Br)c(/C=C/c2cccn2C)cc1Br | 4.97 | 25 | 31.2 | – | 33.6 | 41.3 | 25.1 | 52.8 | 32 | 45.3 | – | – | – | – | – | – | – | – | – | – |
| Cc1cccc2c(O)cc(=O)oc12 | > 100 | > 100 | > 100 | > 100 | > 100 | > 100 | > 100 | > 100 | – | > 100 | – | – | – | – | – | – | – | – | – | – |
| CCC[CH2][Sn]1([CH2]CCC)[O]CC(C)[O]1 (stereo unspecified) | 3.32 | 1.35 | 2.22 | 2.08 | 2.67 | 2.07 | 2.99 | 2.74 | 3.26 | 2.56 | 1.47 | 0.149 | 0.544 | 0.749 | 1.37 | 0.309 | 1.46 | 1.4 | 1.47 | 1.26 |
| C/C=N\N1C(=O)c2ccccc2C1=O | > 100 | > 100 | > 100 | > 100 | > 100 | > 100 | > 100 | > 100 | > 100 | > 100 | – | – | – | – | – | – | – | – | – | – |
| O=NN(CCCl)C(=O)NC1CCC(CC2CCC(NC(=O)N(CCCl)N=O)CC2)CC1 (stereo unspecified) | > 62.4 | > 100 | > 70.4 | 99.6 | > 67.4 | > 77.8 | 44.6 | > 79.2 | > 100 | > 100 | – | – | – | – | – | – | – | – | – | – |
| Cn1c(=O)c2/c(n(C)c1=O)=N\C=c1\c(=O)n(C)c(=O)n(C)\c1=N\C=2 | > 100 | > 100 | > 100 | > 100 | > 100 | – | > 100 | > 100 | > 100 | > 100 | – | – | – | – | – | – | – | – | – | – |
| CN(C)CC/C(=N\Nc1ccc(Cl)cc1Cl)c1ccccc1 | 23.8 | 25.9 | 49.7 | 31.6 | 27 | 17.1 | 20.6 | 32.9 | 27.9 | 28.3 | – | – | – | – | – | – | – | – | – | – |
| CCCCCCCCCCCCCCCCCC(=O)Nc1ccn(C2OC(CO)C(O)C2O)c(=O)n1 (stereo unspecified) | > 100 | > 100 | > 59.1 | 98.7 | 69.6 | > 100 | > 100 | > 100 | > 97.5 | > 100 | – | – | – | – | – | – | – | – | – | – |
| Brc1cc2c(cc1Br)CN(c1ccccc1)C2 | > 100 | > 100 | > 100 | > 100 | > 100 | > 100 | > 100 | > 100 | > 100 | > 100 | – | – | – | – | – | – | – | – | – | – |
| CCc1cccc(C)c1NC(=O)CC1C(=O)Nc2ccccc2S1(=O)=O (stereo unspecified) | 40.4 | 37 | 33 | 41.1 | 33.5 | 40.4 | 40.4 | 82.1 | 44.4 | 59.4 | – | – | – | – | – | – | – | – | – | – |
| N.N.O=P([O-])([O-])C1(P(=O)([O-])[O-])CCCCCN1.[Pt+2] | > 100 | > 100 | > 100 | > 100 | > 100 | > 100 | > 100 | > 100 | > 100 | > 100 | > 100 | > 100 | > 100 | > 100 | > 100 | > 100 | 42.3 | > 100 | > 100 | > 100 |
| CC(=O)[CH-]C(C)=O.CC(=O)[CH-]C(C)=O.CC[O-].CC[O-].[Ti+4] | > 100 | > 100 | > 100 | – | > 100 | > 100 | > 100 | > 100 | > 100 | > 100 | > 100 | > 100 | > 100 | – | > 100 | > 100 | > 100 | > 100 | > 100 | > 100 |
| Cc1ccc(C(=O)CC2=Nc3nnc(CCCCCCCc4nnc5n4C(=O)C(CC(=O)c4ccc(C)cc4)=N5)n3C2=O)cc1 | > 100 | > 100 | > 100 | > 100 | > 100 | > 100 | > 100 | > 100 | > 100 | > 100 | – | – | – | – | – | – | – | – | – | – |
| O=C1/C(=C/c2ccc(Br)cc2)CCC/C1=C\c1ccc(Br)cc1 | 31.6 | 14.7 | 51 | 21.2 | 15.9 | 5.26 | 18.9 | – | 27.1 | 83.1 | – | – | – | – | – | – | – | – | – | – |
| O=[N+]([O-])c1ccc(C=NC23CC4CC(CC(C4)C2)C3)cc1 | > 100 | > 100 | > 100 | > 100 | > 100 | > 100 | > 100 | > 100 | – | > 100 | – | – | – | – | – | – | – | – | – | – |
| OCCN1CCN(CC/C=C2/c3ccccc3Sc3ccc(Cl)cc32)CC1 | 26.4 | 17.9 | 13.1 | 29.2 | 27.9 | 31.2 | 26.5 | 32.6 | 16.5 | 28.8 | – | – | – | – | – | – | – | – | – | – |
| CC(=O)N/C(=C\c1ccc(Cc2nc3c([nH]2)C(=O)c2ccccc2C3=O)cc1)c1nc2c([nH]1)C(=O)c1ccccc1C2=O | > 100 | > 100 | > 100 | > 100 | > 100 | > 100 | > 100 | > 100 | > 100 | > 100 | – | – | – | – | – | – | – | – | – | – |
| N#CCC(=O)N1CCCCCCC1 | > 100 | > 100 | > 100 | > 100 | – | – | > 100 | > 100 | > 100 | > 100 | – | – | – | – | – | – | – | – | – | – |
| CCN(CC)CCNC(=O)c1cccc2nc3ccccc3nc12 | > 100 | > 87.9 | 24.6 | 31.8 | > 50 | > 100 | 28.2 | > 38.1 | > 100 | > 100 | – | – | – | – | – | – | – | – | – | – |
| C[C@]12CCC(=O)C=C1CC[C@@H]1C2CC[C@]2(C)c3nn(-c4ccccc4)nc3CC12 (stereo partly specified) | > 100 | > 100 | > 100 | > 100 | > 100 | > 100 | > 100 | > 100 | > 100 | > 100 | – | – | – | – | – | – | – | – | – | – |
| CCN(CC)C(=S)[S][Bi]([S]C(=S)N(CC)CC)[S]C(=S)N(CC)CC | 0.208 | 0.275 | 0.317 | 0.582 | 0.174 | 2.15 | 0.36 | 3.16 | 1.7 | 0.374 | 0.0404 | 0.142 | 0.168 | 0.211 | 0.0525 | 0.23 | 0.183 | 1.73 | 0.634 | 0.197 |
